One data set deals with T1, σ1-receptor (Cavia porcellus, UniProt Q60492).
T1 construct: guinea pig brains were homogenized; from tissue; host or cells: guinea pig brain membranes
The experiment in a line: Sigma-1 receptor binding, [3H](+)-pentazocine, brain membranes. Also noted: species or system guinea pig. To be noted: for inhibition at 1 µM: 2.5 h, read-out: binding sigma-1 (*) % of radioactively labeled compound replaced by the tested compound.

Another data set deals with T2, σ2-receptor (Mus musculus, UniProt Q8VD00).
T2 construct: brains from sigma receptor type I (sigma-1) knockout mice were homogenized; from tissue; host or cells: brain membranes of sigma-1 knockout mice
T2 sequence (Q8VD00 1-176): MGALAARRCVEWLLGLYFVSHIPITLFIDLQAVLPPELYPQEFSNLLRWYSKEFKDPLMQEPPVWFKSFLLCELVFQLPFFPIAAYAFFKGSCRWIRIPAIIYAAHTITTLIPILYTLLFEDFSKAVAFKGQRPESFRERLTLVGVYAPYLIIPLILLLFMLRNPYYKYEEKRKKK
In words: Sigma-2 receptor binding, [3H]-DTG, brains from sigma-1 knockout mice. As to conditions: for inhibition at 1 µM: 2 h, tested compound at 10^-6 M, [3H]-DTG 3 nM, read-out: binding sigma-2 (*) % of radioactively labeled compound replaced by the tested compound; for Ki: [3H]-DTG, sigma-1 knockout mouse brain. As to the method:
In brief, brains from sigma receptor type I (sigma-1) knockout mice were homogenized in a volume of 10 mL/g tissue net weight of ice-cold 10 mM Tris-HCl, pH 7.4, containing 320 mM sucrose (Tris-sucrose buffer) with a Potter-Elvehjem homogenizer (10 strokes at 500 r.p.m.) The homogenates were then centrifuged at 1000 g for 10 min at 4° C., and the supernatants were saved. The pellets were resuspended by vortexing in 2 mL/g ice-cold Tris-sucrose buffer and centrifuged again at 1000 g for 10 min. The combined 1000 g supernatants were centrifuged at 31000 g for 15 min at 4° C. The pellets were resuspended by vortexing in 3 mL/g 10 mM Tris-HCl, pH 7.4, and the suspension was kept at 25° C. for 15 min.
The assay tubes contained 10 μL of [^3H]-DTG (final concentration of 3 nM), 400 μL of the tissue suspension (5.3 mL/g in 50 mM Tris-HCl, pH 8.0) to a final assay volume of 0.5 mL. Non-specific binding was defined by addition of a final concentration of 1 μM haloperidol. […] Filters were washed with three times with 5 mL volumes of cold Tris-HCl buffer (10 mM, pH 8.0). Following addition of scintillation cocktail samples were allowed to equilibrate overnight.

The subject of data set [1] is capsaicin-induced mechanical allodynia in mice. In words: Effect on capsaicin in development of mechanical allodynia (von Frey filaments). It counts as in vivo. To be noted: mice, capsaicin, von Frey filaments. As to the method:
Effect on Capsaicin in Development of Mechanical Allodynia This model uses the von-Frey Filaments and is a model to test the effects or symptoms of neuropathic pain, allodynia etc. […]. After habituation mice were according to FIG. 1 first treated with the test-compound (or solvent in controls). Then […] (1% DMSO) is injected into their paw resulting in developing pain in the effected paw. The effected paw is then treated with a mechanical stimulus and the latency time before the paw is withdrawn is measured.

Where [2] appears, read: tested compound at 10^-6 M, [3H](+)-pentazocine 0.5 nM.
The mark [3] stands for this setting: [3H](+)-pentazocine, guinea pig brain membranes, read-out: binding sigma-1 Ki.

SMILES strings stand for the structures. Structures can show the parent of a compound that is named as a salt. Where two headings read alike, the source gives them in different places.

T1 sequence (Q60492 whole entry): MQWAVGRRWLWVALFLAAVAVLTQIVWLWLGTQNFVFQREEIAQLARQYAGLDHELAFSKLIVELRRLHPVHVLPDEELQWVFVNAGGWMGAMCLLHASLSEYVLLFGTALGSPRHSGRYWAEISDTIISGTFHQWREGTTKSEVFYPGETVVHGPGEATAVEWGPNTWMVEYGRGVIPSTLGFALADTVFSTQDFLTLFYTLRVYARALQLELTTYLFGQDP

Molecule `O=C(O)C(=O)O.c1ccc(-n2ncc3c2CCCC3CCN2Cc3ccccc3C2)cc1` (stereo not drawn) [Example 56, 4,5,6,7-tetrahydro-4-(2-(isoindolin-2-yl)ethyl)-1-phenyl-1H-indazole oxalate] showed a melting point of 195.7 to 200 °C. Besides, at σ1-receptor (setting [2]), the inhibition at 1 µM worked out at 106%. For the same molecule, the Ki on σ1-receptor (setting [3]) worked out at 0.3 nM. At σ2-receptor, the inhibition at 1 µM came out at 109% and the Ki was 1.4 nM.

Molecule `Clc1ccc(-n2ncc3c2CCCC3CCN2CCOCC2)cc1Cl.O=C(O)C(=O)O` (stereo not drawn) [Example 7, 1-(3,4-dichlorophenyl)-4,5,6,7-tetrahydro-4-(2-(morpholin-4-yl)ethyl)-1H-indazole oxalate] showed a melting point of 148 to 149.8 °C. Moreover, the inhibition at 1 µM on σ1-receptor (setting [2]) is 100%. Further, the Ki on σ1-receptor (setting [3]) worked out at 4.3 nM. Besides, the inhibition at 1 µM at σ2-receptor came out at 98.1%.

Consider `C[C@@H]1CN(CCC2CCCc3c2cnn3-c2ccccc2)C[C@H](C)O1.O=C(O)C(=O)O` (stereo partly drawn) [Example 49, cis-4,5,6,7-tetrahydro-4-(2-(2,6-dimethylmorpholin-4-yl)ethyl)-1-phenyl-1H-indazole oxalate], for which the melting point is 186.6 to 190 °C. The inhibition at 1 µM on σ1-receptor (setting [2]) was determined as 101%. Moreover, on σ1-receptor (setting [3]), the Ki was 7.6 nM. The inhibition at 1 µM at σ2-receptor turned out to be 94.6%.

On to `c1ccc(-n2ncc3c2CCC3CCn2ccnc2)cc1` (stereo not drawn) [Example 45, 4-(2-(1H-imidazol-1-yl)ethyl)-1,4,5,6-tetrahydro-1-phenylcyclopenta[c]pyrazole], for which the melting point is 102.9 to 105.7 °C. The inhibition at 1 µM on σ1-receptor (setting [2]) is 76.4%. Further, the Ki on σ1-receptor (setting [3]) amounted to 143 nM. In addition, the inhibition at 1 µM at σ2-receptor was 22.8%.

As to `c1ccc(CN2CCN(CCC3CCCc4c3cnn4-c3ccccc3)CC2)cc1` (stereo not drawn) [Example 10, 4-(2-(4-benzylpiperazin-1-yl)ethyl)-4,5,6,7-tetrahydro-1-phenyl-1H-indazole], the melting point is 98 to 101 °C. Further, the inhibition at 1 µM on σ1-receptor (setting [2]) is 100%. The Ki on σ1-receptor (setting [3]) was 6.1 nM. For the same molecule, the inhibition at 1 µM at σ2-receptor came out at 70.2%.

Turning to `O=C(O)C(=O)O.c1ccc(-n2ncc3c2CCC3CCN2CCOCC2)cc1` (stereo not drawn) [Example 31, 1,4,5,6-tetrahydro-4-(2-(morpholin-4-yl)ethyl)-1-phenylcyclopenta[c]pyrazole oxalate], the melting point was 159 to 161.8 °C. The inhibition at 1 µM at σ1-receptor (setting [2]) amounted to 101%. Further, on σ1-receptor (setting [3]), the Ki came to 1.2 nM. On σ2-receptor, the inhibition at 1 µM is 88.7% and the affinity corresponds to a Ki of 17.5 nM.

As to `c1ccc(-n2ncc3c2CCCC3CCN2CCOCC2)cc1` (stereo not drawn) [Example 2, 4,5,6,7-tetrahydro-4-(2-(morpholin-4-yl)ethyl)-1-phenyl-1H-indazole oxalate], the antiallodynic effect entry in data set [1] is “clear antiallodynic effect”.

On to `O=C(O)C(=O)O.c1ccc(-n2ncc3c2CCCC3CCN2CCC3(CC2)OCc2ccccc23)cc1` (stereo not drawn) [Example 12, 4,5,6,7-tetrahydro-1-phenyl-4-(2-[spiro[isobenzofuran-1(3H), 4′-piperidin]-1′-yl]ethyl)-1H-indazole oxalate], for which the melting point lay within 133 to 135 °C. Further, on σ1-receptor, the affinity corresponds to a Ki of 0.9 nM and the inhibition at 1 µM stood at 100%. For the same molecule, at σ2-receptor, the inhibition at 1 µM was 98.8% and the Ki came out at 37 nM.

On to `C(/CN1CCCC(c2ccccc2)C1)=C1/CCCc2c1cnn2-c1ccccc1` (stereo not drawn) [Example 23, (E)-4,5,6,7-tetrahydro-1-phenyl-4-(2-(3-phenylpiperidin-1-yl)ethylidene)-1H-indazole], for which the melting point is 136 to 138 °C. Besides, the inhibition at 1 µM at σ1-receptor (setting [2]) was found to be 99.4%. At σ1-receptor (setting [3]), the Ki is 23.3 nM. For the same molecule, at σ2-receptor, the inhibition at 1 µM is 67.4%.

Take `O=C(O)C(=O)O.c1ccc(C2CCN(CCC3CCCc4c3cnn4-c3ccccc3)CC2)cc1` (stereo not drawn) [Example 9, 4,5,6,7-tetrahydro-1-phenyl-4-(2-(4-phenylpiperidin-1-yl)ethyl)-1H-indazole oxalate]: the melting point fell in the range of 124 to 125 °C. The inhibition at 1 µM on σ1-receptor (setting [2]) was determined as 101%. In addition, the Ki at σ1-receptor (setting [3]) stood at 1.5 nM. In addition, at σ2-receptor, the inhibition at 1 µM was determined as 107% and the Ki was 37.5 nM.

Regarding `O=C(O)C(=O)O.c1ccc(-n2ncc3c2CCC3CCN2CCC3(CC2)OCc2ccccc23)cc1` (stereo not drawn) [Example 51, 1,4,5,6-tetrahydro-1-phenyl-4-(2-[spiro[isobenzofuran-1(3H), 4′-piperidin]-1′-yl]ethyl)cyclopenta[c]pyrazole oxalate], the melting point lay within 170.5 to 173.6 °C. For the same molecule, at σ1-receptor, the affinity corresponds to a Ki of 31.3 nM and the inhibition at 1 µM is 107%. For the same molecule, at σ2-receptor, the inhibition at 1 µM is 113%.

Consider `C(/CN1CCOCC1)=C1/CCCc2c1cnn2-c1ccccc1.O=C(O)C(=O)O` [Example 77, (E)-4,5,6,7-tetrahydro-4-(2-(morpholin-4-yl)ethylidene)-1-phenyl-1H-indazole oxalate], for which the antiallodynic effect result in data set [1] was “clear antiallodynic effect”.

With `c1ccc(C2CCN(CCC3CCc4c3cnn4-c3ccccc3)CC2)cc1` (stereo not drawn) [Example 36, 1,4,5,6-tetrahydro-1-phenyl-4-(2-(4-phenylpiperidin-1-yl)ethyl)cyclopenta[c]pyrazole], the melting point was in the range of 83 to 86 °C. Also, the inhibition at 1 µM at σ1-receptor (setting [2]) stood at 103%. Besides, the Ki at σ1-receptor (setting [3]) came out at 5.9 nM. In addition, on σ2-receptor, the inhibition at 1 µM turned out to be 87.9%.

`C[C@@H]1CN(CCC2CCc3c2cnn3-c2ccccc2)C[C@H](C)O1.O=C(O)C(=O)O` (stereo partly drawn) [Example 47, cis-1,4,5,6-tetrahydro-4-(2-(2,6-dimethylmorpholin-4-yl)ethyl)-1-phenylcyclopenta-[c]pyrazole oxalate]: the melting point was in the range of 160.2 to 161.5 °C. Besides, the inhibition at 1 µM at σ1-receptor (setting [2]) stood at 104%. Besides, the Ki on σ1-receptor (setting [3]) came out at 1.8 nM. For the same molecule, the inhibition at 1 µM on σ2-receptor worked out at 95.9%.

`C(/CN1CCC2(CC1)OCc1ccccc12)=C1/CCCc2c1cnn2-c1ccccc1.O=C(O)C(=O)O` [Example 19, (E)-4,5,6,7-tetrahydro-1-phenyl-4-(2-[spiro[isobenzofuran-1(3H), 4′-piperidin]-1′-yl]ethylidene)-1H-indazole oxalate] showed a melting point of 155 to 157 °C. Further, at σ1-receptor, the affinity, expressed as Ki, was 4.9 nM and the inhibition at 1 µM was 100%. For the same molecule, on σ2-receptor, the inhibition at 1 µM came out at 91% and the affinity, expressed as Ki, was 479 nM.

Take `O=C(O)C(=O)O.c1ccc(-n2ncc3c2CCCC3CCN2CCCCC2)cc1` (stereo not drawn) [Example 14, 4,5,6,7-tetrahydro-1-phenyl-4-(2-(piperidin-1-yl)ethyl)-1H-indazole oxalate]: the melting point fell in the range of 185 to 188 °C. Further, on σ1-receptor (setting [2]), the inhibition at 1 µM amounted to 99.8%. For the same molecule, the Ki at σ1-receptor (setting [3]) was 2.3 nM. On σ2-receptor, the inhibition at 1 µM turned out to be 89%.

The molecule `C(/CN1CCCCCC1)=C1/CCCc2c1cnn2-c1ccccc1.O=C(O)C(=O)O` [Example 16, (E)-4-(2-(azepan-1-yl)ethylidene)-4,5,6,7-tetrahydro-1-phenyl-1H-indazole oxalate] gave a melting point of 171 to 173 °C. Also, the inhibition at 1 µM at σ1-receptor (setting [2]) was found to be 99.9%. Also, the Ki on σ1-receptor (setting [3]) came out at 1.5 nM. Moreover, on σ2-receptor, the inhibition at 1 µM worked out at 93%.

In turn, `Cn1ncc2c1CCCC2CCN1Cc2ccccc2C1.O=C(O)C(=O)O` (stereo not drawn) [Example 60, 4,5,6,7-tetrahydro-4-(2-(isoindolin-2-yl)ethyl)-1-methyl-1H-indazole oxalate] showed a melting point of 150 to 151 °C. Besides, the inhibition at 1 µM at σ1-receptor (setting [2]) is 104%. Moreover, the Ki at σ1-receptor (setting [3]) turned out to be 3.1 nM. In addition, on σ2-receptor, the inhibition at 1 µM is 88.2% and the Ki turned out to be 18.8 nM.

For the origin of these results see US8394797B2, “Substituted pyrazole sigma receptor antagonists” (Laboratorios Del Dr. Esteve, S.A., priority 2004, dated 2013).
